Reference: PMC12040169 (PLOS Biology, 2025)

Test: in vitro
Conditions: human, hela cells, % viability

SMILES	viability at 28.5 h, 10 µM [%]
CC1CCc2c(sc(Nc3nc4c(F)cccc4s3)c2C(N)=O)C1 (stereo not shown) [CBK287477]	102
Cn1nccc1CN1CCNC(=O)C1c1ccccc1C(F)(F)F (stereo not shown) [CBK306422]	86.9
CCN(CC)C(=O)CN1CCN(c2nccnc2OCc2cccnc2)CC1 [CBK083140]	100
NS(=O)(=O)c1ccc(NC(=O)CN2C(=O)S/C(=C\C=C\c3ccccc3)C2=O)cc1 [CBK264835]	94.6
O=C(C1CCCC1)N1CCC[C@@H]1Cn1c(=O)oc2ccccc21 [CBK284539]	87.3
CC1(C)CC(=O)C2=C(C1)NC(SCC(=O)Nc1ccc(S(=O)(=O)N3CCCCC3)cc1)=C(C#N)C2c1ccco1 (stereo not shown) [CBK266695]	94.3
CC(C)[C@@H](CO)n1c(=O)[nH]c2ncc(-c3ccc(N4CCOCC4)cc3)nc21 [CBK064770]	110
Cc1cc(NS(=O)(=O)c2ccc(NC(=O)c3ccc(C(C)(C)C)c(Br)c3)cc2)no1 [CBK265629]	119
NS(=O)(=O)c1ccc(CCNC(=O)c2ccc(C#Cc3ccccc3)cc2)cc1 [CBK263089]	95.9
O=C(COc1ccc2oc3c(c2c1)CCCC3)Nc1ccncc1 [CBK266227]	100
Clc1ccc(COc2nccnc2N2CCN(Cc3ccc4c(c3)OCO4)CC2)cc1Cl [CBK083078T]	109
O=C(NCCNc1ccc(Cl)cc1[N+](=O)[O-])c1ccccc1Br [CBK263538]	102
CC(=O)Nc1ccc(S(=O)(=O)NCCCc2ccccc2)cc1 [CBK265488]	89.8
CCCNc1nc(Nc2ccc(C)cc2)nc(N2CCOCC2)n1 [CBK266664]	111
CC(C)Cc1csc2nc(-c3ccc(Br)cc3)oc(=O)c12 [CBK026692]	96.7
Clc1ccc(CN2CCCN(c3nccc(OCC4COc5ccccc5O4)n3)CC2)cc1Cl (stereo not shown) [CBK083967]	97.3
CSc1ccccc1CNC(=O)Cn1nnc(-c2ccc(CN3CCC(C)CC3)cc2)n1 [CBK144573C]	93.2
FC(F)(F)c1cc(-c2cn3ccnc3c(NC3CCOCC3)n2)cc(C(F)(F)F)c1 [CBK037278]	107
N#Cc1ccc(C(=O)Nc2nnc(-c3ccccn3)o2)cc1 [CBK287428]	100
COCCNc1nc(-c2cccc(C(N)=O)c2)cnc1N [CBK063901]	115
COCOc1ccc(-c2nc(-c3cccc(NS(C)(=O)=O)c3)cnc2N)cc1 [CBK063985]	105
O=C(Nc1cccc2nsnc12)c1cc(Cl)ccc1NS(=O)(=O)c1cccc2nsnc12 [CBK261129]	80.9

SMILES	viability at 28.5 h, 10 µM [%]
Cc1ccc(OC(=O)c2ccc(S(=O)(=O)N(C)C)cc2)c(-n2nc3ccccc3n2)c1 [CBK267805]	81.2
Nc1ccc(-c2nc3cc(C(=O)c4ccc5[nH]c(-c6ccc(N)cc6)nc5c4)ccc3[nH]2)cc1 [CBK262848]	99.7
O=c1[nH]c2ncc(-c3ccsc3)nc2n1CC1CCOCC1 [CBK064293]	86.3
Cc1nc(C)n(CCc2nc3ccccc3[nH]2)n1 [CBK269364]	105
O=C1c2ccc(Oc3ccc(Oc4ccc5c(c4)C(=O)N(c4cccnc4)C5=O)cc3)cc2C(=O)N1c1cccnc1 [CBK262195]	95.7
O=C(O)CC(C(=O)O)c1ccc(Cl)cc1Cl (stereo not shown) [CBK268523]	95.5
COc1ccc(Cn2nc(NC(=O)c3cn(C)c4ccccc34)c3ccccc32)cc1 [CBK048344]	57.2
COc1ccc2[nH]c(=O)c(CN(CCN(C)C)C(=S)Nc3ccc(F)cc3)cc2c1 [CBK135011]	97.1
CCn1cc(CN2CCC(Oc3cc(C)ccc3F)(C(=O)O)CC2)cn1 [CBK306644]	96.1
O=c1[nH]cc(-c2ccccc2)cc1CNc1ccccc1-n1ccnc1 [CBK284769]	101
OCCN1CCN(C(S)=NC2CCCC2)CC1 [CBK265886]	91.6
O=C(NCCCN1CCOCC1)/C(=N\O)c1ccccn1 [CBK288366]	94.1
NC1=C(c2nc3ccccc3s2)C(=O)CN1CCN1CCOCC1 [CBK265946]	93.1
C=CCn1c(-c2sc(NC(=O)c3ccc(C)c(C)c3)nc2C)n[nH]c1=S [CBK295294]	88.7
O=C(O)CCCCCNc1ccc(C(F)(F)F)cc1[N+](=O)[O-] [CBK286707]	83.3
COc1ccc(NC(=O)CSc2cc(-n3cccn3)ncn2)cc1 [CBK287819]	116
Cc1ccc(C(N)=O)c(OCC(=O)N2c3ccccc3CCC2C)c1 (stereo not shown) [CBK295633]	93.8
CCOC(=O)c1cn([C@H]2CC[C@H](O)CC2)cc(Oc2ccccc2)c1=O [CBK307565]	108
CCN(CC)CCN(C(=O)NCCCSC)C(C)c1ccc(OC)c(OC)c1 (stereo not shown) [CBK158803]	94.3
Cn1nc(-c2ccc(S(=O)(=O)Nc3ccc4cn[nH]c4c3)s2)cc1C(F)(F)F [CBK067156]	92.8
CCC(CC)n1nc(C(=O)NC2(C#N)CCSC2)cc1C (stereo not shown) [CBK305111]	103
COCCNCc1cccc(OCc2ccccc2)c1 [CBK269864C]	87.9

SMILES	viability at 28.5 h, 10 µM [%]
CN(C)S(=O)(=O)N(CC(=O)O)c1ccccc1 [CBK267660]	105
CCOc1ccccc1-c1noc(-c2nn(-c3ccc(C)cc3)ccc2=O)n1 [CBK288597]	95.7
O=C1NC2(CCc3ccccc31)CCN(C(=O)c1cccnc1)C2 (stereo not shown) [CBK283335]	96.5
C/C(CC(=O)Nc1ccc(C)cc1)=N\NC(=O)c1cccc(O)c1 [CBK262618]	104
COc1ccc(CC(=O)N2CCCc3c(cnn3C)C2)cc1F [CBK285285]	87.9
O=C(Nc1ccc(F)cc1)C1CC(=O)n2c(nc3ccccc32)N1 (stereo not shown) [CBK287282]	101
COc1cccc(-c2cnc(N)c(NCc3ccco3)n2)c1 [CBK063684]	99.6
CC(=O)NS(=O)(=O)c1ccc(-c2ccc(/C=C(/C#N)c3nc4ccc(C)cc4[nH]3)o2)cc1 [CBK264771]	109
O=C(Nc1cccnc1)N1CCN(Cc2ccccc2)CC1 [CBK155663]	87.7
CC(C)n1cc(C(=O)N2CCCC(c3cc4ncccc4[nH]3)C2)cn1 (stereo not shown) [CBK283419]	88.2
O=c1[nH]nc2c3c(nc(-c4ccncc4)n12)CCCC3 [CBK288029]	109
CC(C)(C)OC(=O)N1CCC2(CC1)N=C(c1ccccc1)C(=S)N2 [CBK288478]	112
Cc1ccc2nc(-c3ccccc3)c(CN3CCCC3)c(O)c2c1 [CBK264736]	106
CCc1nc2ccccc2c(NC(=O)CN2CCCCCC2)c1C [CBK261580G]	90.3
CCOC(=O)C1C2CCC3(CC(=O)c4cc(Cl)ccc4O3)C21 (stereo not shown) [CBK284858]	107
O=C(Cn1cnnn1)NC1CCCC1 [CBK200372]	94.9
Cn1c(C(=O)Nc2ccc(Cn3cncn3)cc2)cc2cc(F)ccc21 [CBK281584]	104
CCCCN1CC(C(=O)Nc2nccs2)CC1=O (stereo not shown) [CBK288224]	95.3
Cc1onc(-c2ccccc2)c1C(=O)NCc1ccccc1 [CBK200116]	99.4
Cc1ccc(CN2C(=O)CSC2c2cn(-c3ccccc3)nc2-c2ccccc2)cc1 (stereo not shown) [CBK263678]	94.5
COC(=O)c1ccc(N2CCOCC2)c(NC(=O)COc2ccccc2)c1 [CBK270222]	84.6
COCCn1c(=O)n(CC=C(C)C)c2cccnc21 [CBK283534]	92.1

SMILES	viability at 28.5 h, 10 µM [%]
COc1ccccc1Cc1cccc(C2CCN(C(=O)c3ccccc3)CC2)n1 [CBK286236]	101
N#Cc1cccnc1N1CCC(NC(=O)c2ccc3nccn3c2)CC1 [CBK306566]	95.1
CCOC(=O)c1cccc(NS(=O)(=O)c2ccc(C)c([N+](=O)[O-])c2)c1 [CBK034343]	84.8
CC(CN(C)C(=O)c1nc(=O)[nH][nH]1)Oc1ccc(Cl)c(Cl)c1 (stereo not shown) [CBK306471]	87.9
O=C(COc1ccc2ccccc2c1Br)NCCN1CCOCC1 [CBK267391]	89.7
Cc1cccc(Cn2nc(C)c(NC(=O)c3ccncc3)c2C)c1 [CBK270126]	97.2
CC(=O)NCCSc1cccc(C(F)(F)F)n1 [CBK105299]	112
CCCCC(Sc1nc(N)cc(Cl)n1)c1cc(C)ccn1 (stereo not shown) [CBK016827]	106
O=C(c1cc(-c2ccc(Cl)cc2)nc2ccccc12)n1nnc2ccccc21 [CBK264640]	101
Cn1cnc2c(ncn2C2OC(CO)C(O)C2O)c1=N (stereo not shown) [CBK201313]	102
CCOC(=O)Cn1c(C)nc2ccccc21 [CBK115311]	103
Cc1ccc(OCC(=O)NC(=S)Nc2cc(C(=O)O)ccc2C)cc1 [CBK265000]	96.8
CN(C)CCCNC(=O)c1cc2c(n(-c3ccc(Cl)c(Cl)c3)c1=O)CC(C)(C)CC2=O [CBK293952]	87.4
O=C(O)COCc1cc(-c2ccc3c(c2)OCO3)on1 [CBK286883]	110
Cc1[nH]c(=O)c(C(=O)Nc2ccc(-n3ccc(C(N)=O)n3)cc2)cc1-c1ccccc1 [CBK291194]	109
O=C(Nc1ccc(Oc2ccccc2)cc1)c1cnc2n(c1=O)CCS2 [CBK287377]	95.1
CS(=O)(=O)c1ccc(-c2cccc(COC3CCN(C(=O)Cc4c[nH]cn4)CC3)c2)cc1 [CBK149515]	90.9
O=C(Nc1ccc(-c2nc3cc(-c4nc5cc(NC(=O)c6cccs6)ccc5[nH]4)ccc3[nH]2)cc1)c1cccs1 [CBK261614]	97.6
O=S(=O)(NCc1nc2ccccc2[nH]1)c1ccc(Cl)c(Cl)c1 [CBK261137]	86.2
c1ccc(-c2ccc(OCCCCN3CCNCC3)cc2)cc1 [CBK266028G]	95.8
O=C(O)CCCNS(=O)(=O)c1ccc(I)cc1 [CBK269160]	102
COc1ccccc1/C=C(/NC(=O)c1ccc(Cl)cc1Cl)C(=O)O [CBK263998]	98.4
